Results reported in ChEMBL document CHEMBL3421546 (Bioorg Med Chem Lett, 2015).
In brackets after ≈: the same amount, converted by molar mass. One block for each molecule: values may come before it.

Columns and labels:
[1] = Cytotoxic activity against human HeLa cells assessed as cell viability at 1000 ug/ml incubated for 24 hrs by MTT assay; type: cell-based; conditions: read-out: Activity
[2] = Cytotoxic activity against human HeLa cells assessed as cell viability at 100 ug/ml incubated for 24 hrs by MTT assay; type: cell-based; conditions: read-out: Activity
[3] = Cytotoxic activity against human HeLa cells assessed as cell viability at 10 ug/ml incubated for 24 hrs by MTT assay; type: cell-based; conditions: read-out: Activity
[4] = Cytotoxic activity against human HeLa cells assessed as cell viability at 1 ug/ml incubated for 24 hrs by MTT assay; type: cell-based; conditions: read-out: Activity
[5] = Cytotoxic activity against human HeLa cells assessed as cell viability at 0.1 ug/ml incubated for 24 hrs by MTT assay; type: cell-based; conditions: read-out: Activity
[6] = Cytotoxic activity against human HeLa cells assessed as reduction in cell viability incubated for 24 hrs by MTT assay; type: cell-based
Plasmodium falciparum [7] = test: Antimalarial activity against CQ-sensitive Plasmodium falciparum 3D7 cultivated in human type O+ red blood cells assessed as reduction in parasite infection incubated for 48 hrs by microscopy; type: functional, organism-based; conditions: 3D7, 48 h
[8] = Selectivity index, ratio of CC50 for human HeLa cells to IC50 for CQ-sensitive Plasmodium falciparum 3D7; type: functional
[9] = Cytotoxic activity against human HepG2 cells assessed as cell viability at 1000 ug/ml incubated for 24 hrs by MTT assay; type: cell-based; conditions: read-out: Activity
[10] = Cytotoxic activity against human HepG2 cells assessed as cell viability at 100 ug/ml incubated for 24 hrs by MTT assay; type: cell-based; conditions: read-out: Activity
[11] = Cytotoxic activity against human HepG2 cells assessed as cell viability at 10 ug/ml incubated for 24 hrs by MTT assay; type: cell-based; conditions: read-out: Activity
[12] = Cytotoxic activity against human HepG2 cells assessed as cell viability at 1 ug/ml incubated for 24 hrs by MTT assay; type: cell-based; conditions: read-out: Activity
[13] = Cytotoxic activity against human HepG2 cells assessed as cell viability at 0.1 ug/ml incubated for 24 hrs by MTT assay; type: cell-based; conditions: read-out: Activity
[14] = Cytotoxic activity against human HepG2 cells assessed as reduction in cell viability incubated for 24 hrs by MTT assay; type: cell-based
[15] = Selectivity index, ratio of CC50 for human HepG2 cells to IC50 for CQ-sensitive Plasmodium falciparum 3D7; type: functional
Plasmodium falciparum [16] = test: Antimalarial activity against CQ-resistant Plasmodium falciparum W2 cultivated in human type O+ red blood cells assessed as reduction in parasite infection incubated for 48 hrs by microscopy; type: functional, organism-based; conditions: W2, 48 h
Plasmodium berghei [17] = test: Antimalarial activity against Plasmodium berghei NK65 infected in Swiss albino mouse assessed as parasitemia level at 10 mg/kg, po dosed for four consecutive days beginning on first day of infection and measured on day 7 post infection (reference value: 5.42 +/- 0.79%); type: functional
Plasmodium berghei [18] = test: Antimalarial activity against Plasmodium berghei NK65 infected in Swiss albino mouse assessed as parasitemia level at 10 mg/kg, po dosed for four consecutive days beginning on first day of infection and measured on day 12 post infection (reference value: 8.81 +/- 1.17%); type: functional
Plasmodium berghei [19] = test: Antimalarial activity against Plasmodium berghei NK65 infected in Swiss albino mouse assessed as inhibition of parasitemia at 10 mg/kg, po dosed for four consecutive days beginning on first day of infection and measured on day 7 post infection relative to untreated control; type: functional; conditions: NK65, 168 h
Plasmodium berghei [20] = test: Antimalarial activity against Plasmodium berghei NK65 infected in Swiss albino mouse assessed as inhibition of parasitemia at 10 mg/kg, po dosed for four consecutive days beginning on first day of infection and measured on day 12 post infection relative to untreated control; type: functional; conditions: NK65, 288 h
Mus musculus [21] = test: Toxicity in Plasmodium berghei NK65 infected Swiss albino mouse assessed as mouse survival at 10 mg/kg, po dosed for four consecutive days beginning on first day of infection and measured on day 7 post infection relative to untreated control; type: organism-based; parameters: dose 10 mg/kg, route oral; conditions: in vivo
Mus musculus [22] = test: Toxicity in Plasmodium berghei NK65 infected Swiss albino mouse assessed as mouse survival at 10 mg/kg, po dosed for four consecutive days beginning on first day of infection and measured on day 12 post infection relative to untreated control; type: organism-based; parameters: dose 10 mg/kg, route oral; conditions: in vivo
Mus musculus [23] = test: Toxicity in Plasmodium berghei NK65 infected Swiss albino mouse assessed as mouse mortality at 10 mg/kg, po dosed for four consecutive days beginning on first day of infection and measured on day 7 post infection relative to untreated control; type: organism-based; parameters: dose 10 mg/kg, route oral; conditions: in vivo
Mus musculus [24] = test: Toxicity in Plasmodium berghei NK65 infected Swiss albino mouse assessed as mouse mortality at 10 mg/kg, po dosed for four consecutive days beginning on first day of infection and measured on day 12 post infection relative to untreated control; type: organism-based; parameters: dose 10 mg/kg, route oral; conditions: in vivo

SMILES: NS(=O)(=O)c1ccc(Nc2ccnc3cc(Cl)ccc23)cc1
viability at 24 h, 1000 ug/ml [9]: 43%
viability at 24 h, 100 ug/ml [10]: 65%
viability at 24 h, 10 ug/ml [11]: 85%
viability at 24 h, 1 ug/ml [12]: 94%
viability at 24 h, 0.1 ug/ml [13]: 93%
viability at 24 h, 1000 ug/ml [1]: 37%
viability at 24 h, 100 ug/ml [2]: 91%
viability at 24 h, 10 ug/ml [3]: 100%
viability at 24 h, 1 ug/ml [4]: 95%
viability at 24 h, 0.1 ug/ml [5]: 93%
CC50 at 24 h [14]: 234 µg/mL (≈ 701 µM)
CC50 at 24 h [6]: 793 µg/mL (≈ 2380 µM)
IC50 (Plasmodium falciparum [7]): 2.18 µg/mL (≈ 6.53 µM)
Ratio CC50/IC50 [15]: 112
Ratio CC50/IC50 [8]: 364

SMILES: CCN(CC)CCCC(C)Nc1ccnc2cc(Cl)ccc12 (centres undefined) [CHLOROQUINE]
viability at 24 h, 1000 ug/ml [9]: 60%
viability at 24 h, 100 ug/ml [10]: 67%
viability at 24 h, 10 ug/ml [11]: 92%
viability at 24 h, 1 ug/ml [12]: 97%
viability at 24 h, 0.1 ug/ml [13]: 93%
viability at 24 h, 1000 ug/ml [1]: 92%
viability at 24 h, 100 ug/ml [2]: 100%
viability at 24 h, 10 ug/ml [3]: 97%
viability at 24 h, 1 ug/ml [4]: 94%
viability at 24 h, 0.1 ug/ml [5]: 98%
CC50 at 24 h [14]: > 1000 µg/mL
CC50 at 24 h [6]: > 1000 µg/mL
IC50 (Plasmodium falciparum [7]): < 0.19 µg/mL
IC50 (Plasmodium falciparum [16]): < 0.39 µg/mL
Ratio CC50/IC50 [15]: >1000
Ratio CC50/IC50 [8]: >1000
Activity (Plasmodium berghei [17]): 1.72%
Activity (Plasmodium berghei [18]): 1.55%
inhibition in vivo at 10 mg/kg (Plasmodium berghei [19]): 68%
inhibition in vivo at 10 mg/kg (Plasmodium berghei [20]): 82%
Activity (Mus musculus [21]): Non-toxic
Activity (Mus musculus [22]): Non-toxic
Activity (Mus musculus [23]): Non-toxic
Activity (Mus musculus [24]): Non-toxic

SMILES: Cc1cc(NS(=O)(=O)c2ccc(Nc3ccnc4cc(Cl)ccc34)cc2)no1
viability at 24 h, 1000 ug/ml [1]: 17%
viability at 24 h, 100 ug/ml [2]: 61%
viability at 24 h, 10 ug/ml [3]: 59%
viability at 24 h, 1 ug/ml [4]: 72%
viability at 24 h, 0.1 ug/ml [5]: 67%
CC50 at 24 h [6]: 290 µg/mL (≈ 699 µM)
IC50 (Plasmodium falciparum [7]): 23.8 µg/mL (≈ 57.5 µM)
Ratio CC50/IC50 [8]: 12

SMILES: NNC(=O)c1cccnc1 [NICOTINIC ACID HYDRAZIDE]
viability at 24 h, 1000 ug/ml [1]: 25%
viability at 24 h, 100 ug/ml [2]: 58%
viability at 24 h, 10 ug/ml [3]: 92%
viability at 24 h, 1 ug/ml [4]: 87%
viability at 24 h, 0.1 ug/ml [5]: 88%
CC50 at 24 h [6]: 153 µg/mL (≈ 1120 µM)
IC50 (Plasmodium falciparum [7]): > 50 µg/mL
Ratio CC50/IC50 [8]: <3.06

SMILES: C[C@H]1[C@H](OC(=O)CCC(=O)O)O[C@@H]2O[C@@]3(C)CC[C@H]4[C@H](C)CC[C@@H]1[C@@]24OO3 [ARTESUNATE]
IC50 (Plasmodium falciparum [16]): < 0.39 µg/mL

Continued, in another order:

IC50 (Plasmodium falciparum [7]): 5.97 µg/mL (≈ 14.3 µM)
SMILES: O=S(=O)(Nc1nccs1)c1ccc(Nc2ccnc3cc(Cl)ccc23)cc1
viability at 24 h, 1000 ug/ml [1]: 12%
viability at 24 h, 100 ug/ml [2]: 65%
viability at 24 h, 10 ug/ml [3]: 60%
viability at 24 h, 1 ug/ml [4]: 71%
viability at 24 h, 0.1 ug/ml [5]: 74%
CC50 at 24 h [6]: 334 µg/mL (≈ 801 µM)
Ratio CC50/IC50 [8]: 56

IC50 (Plasmodium falciparum [7]): 3.64 µg/mL (≈ 8.86 µM)
SMILES: O=S(=O)(Nc1ccccn1)c1ccc(Nc2ccnc3cc(Cl)ccc23)cc1
viability at 24 h, 1000 ug/ml [9]: 48%
viability at 24 h, 100 ug/ml [10]: 57%
viability at 24 h, 10 ug/ml [11]: 86%
viability at 24 h, 1 ug/ml [12]: 97%
viability at 24 h, 0.1 ug/ml [13]: 92%
viability at 24 h, 1000 ug/ml [1]: 11%
viability at 24 h, 100 ug/ml [2]: 53%
viability at 24 h, 10 ug/ml [3]: 68%
viability at 24 h, 1 ug/ml [4]: 78%
viability at 24 h, 0.1 ug/ml [5]: 82%
CC50 at 24 h [14]: 252 µg/mL (≈ 613 µM)
CC50 at 24 h [6]: 113 µg/mL (≈ 275 µM)
Ratio CC50/IC50 [15]: 69
Ratio CC50/IC50 [8]: 31

IC50 (Plasmodium falciparum [7]): 16.3 µg/mL (≈ 39.6 µM)
SMILES: O=S(=O)(Nc1ncccn1)c1ccc(Nc2ccnc3cc(Cl)ccc23)cc1
viability at 24 h, 1000 ug/ml [9]: 68%
viability at 24 h, 100 ug/ml [10]: 75%
viability at 24 h, 10 ug/ml [11]: 89%
viability at 24 h, 1 ug/ml [12]: 90%
viability at 24 h, 0.1 ug/ml [13]: 85%
viability at 24 h, 1000 ug/ml [1]: 22%
viability at 24 h, 100 ug/ml [2]: 75%
viability at 24 h, 10 ug/ml [3]: 76%
viability at 24 h, 1 ug/ml [4]: 82%
viability at 24 h, 0.1 ug/ml [5]: 85%
CC50 at 24 h [14]: > 1000 µg/mL
CC50 at 24 h [6]: 494 µg/mL (≈ 1200 µM)
Ratio CC50/IC50 [15]: >61
Ratio CC50/IC50 [8]: 30
